Laboratory results as given in ChEMBL document CHEMBL2073900, “Cellular uptake and efflux of the tea flavonoid (-)epicatechin-3-gallate in the human intestinal cell line Caco-2” (J Pharmacol Exp Ther, 2003).

Target: ATP-binding cassette sub-family C member 2 (Homo sapiens, UniProt Q92887)
Assay: TP_TRANSPORTER: uptake in membrane vesicle from MRP2-expressing MDCKII cells
Type: functional, cell membranes
Conditions: dog, mdck-ii

ATP-binding cassette sub-family C member 2, sequence (Q92887 whole entry): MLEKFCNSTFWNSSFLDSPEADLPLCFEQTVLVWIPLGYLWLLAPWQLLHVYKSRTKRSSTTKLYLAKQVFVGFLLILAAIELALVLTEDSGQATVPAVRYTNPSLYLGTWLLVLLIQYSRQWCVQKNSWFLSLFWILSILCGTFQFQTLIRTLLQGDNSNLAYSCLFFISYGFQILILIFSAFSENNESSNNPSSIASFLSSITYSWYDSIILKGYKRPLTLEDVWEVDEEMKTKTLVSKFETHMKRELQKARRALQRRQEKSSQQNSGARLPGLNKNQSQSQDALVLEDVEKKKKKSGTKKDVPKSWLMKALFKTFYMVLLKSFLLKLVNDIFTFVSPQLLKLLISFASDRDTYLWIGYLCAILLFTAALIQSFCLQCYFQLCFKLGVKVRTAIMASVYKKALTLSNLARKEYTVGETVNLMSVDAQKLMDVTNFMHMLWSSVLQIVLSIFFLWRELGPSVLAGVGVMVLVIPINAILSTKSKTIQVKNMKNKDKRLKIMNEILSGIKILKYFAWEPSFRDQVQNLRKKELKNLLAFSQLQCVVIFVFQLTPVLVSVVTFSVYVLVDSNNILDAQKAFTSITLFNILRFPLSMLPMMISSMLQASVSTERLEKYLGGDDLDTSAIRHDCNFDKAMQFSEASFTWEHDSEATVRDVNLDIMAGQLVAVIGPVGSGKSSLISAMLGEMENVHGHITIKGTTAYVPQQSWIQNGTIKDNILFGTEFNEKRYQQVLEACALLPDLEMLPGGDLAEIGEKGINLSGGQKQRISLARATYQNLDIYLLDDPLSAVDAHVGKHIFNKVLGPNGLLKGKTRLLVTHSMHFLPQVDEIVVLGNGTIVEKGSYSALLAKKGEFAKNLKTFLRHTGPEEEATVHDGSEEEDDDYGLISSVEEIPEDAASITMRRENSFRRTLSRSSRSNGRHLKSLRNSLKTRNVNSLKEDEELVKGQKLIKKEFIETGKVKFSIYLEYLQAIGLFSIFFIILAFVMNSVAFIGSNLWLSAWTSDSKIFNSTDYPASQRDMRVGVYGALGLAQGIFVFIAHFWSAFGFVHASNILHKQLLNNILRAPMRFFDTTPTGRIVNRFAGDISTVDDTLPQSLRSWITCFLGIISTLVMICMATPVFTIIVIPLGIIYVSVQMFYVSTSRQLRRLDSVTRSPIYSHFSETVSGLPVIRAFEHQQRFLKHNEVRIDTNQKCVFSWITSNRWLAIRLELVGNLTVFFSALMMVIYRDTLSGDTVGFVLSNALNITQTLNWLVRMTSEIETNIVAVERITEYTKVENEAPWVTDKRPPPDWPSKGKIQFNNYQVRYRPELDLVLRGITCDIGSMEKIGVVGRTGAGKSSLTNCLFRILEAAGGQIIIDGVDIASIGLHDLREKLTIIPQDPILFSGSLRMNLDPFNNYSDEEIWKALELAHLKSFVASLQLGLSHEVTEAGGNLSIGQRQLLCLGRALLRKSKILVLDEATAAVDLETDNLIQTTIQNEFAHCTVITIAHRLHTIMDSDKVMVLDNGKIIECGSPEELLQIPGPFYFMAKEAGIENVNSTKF

- Activity: substrate []
SMILES: O=C(O[C@@H]1Cc2c(O)cc(O)cc2O[C@@H]1c1ccc(O)c(O)c1)c1cc(O)c(O)c(O)c1 [EPICATECHIN GALLATE]
